Test results reported in article PMC6562543 (Marine Drugs, 2019).

System: CaV2.2 channels (α1B, α2δ1, and β3)
Assay type: cell-based, rat

CSCC[C@@H]1NC(=O)[C@H](CC(C)C)NC(=O)[C@H](CCCNC(=N)N)NC(=O)[C@H](CO)NC(=O)[C@@H]2CSSC[C@@H]3NC(=O)[C@H](CO)NC(=O)CNC(=O)[C@H]([C@@H](C)O)NC(=O)[C@H](CSSC[C@H](N)C(=O)N[C@@H](CCCCN)C(=O)NCC(=O)N[C@@H](CCCCN)C(=O)NCC(=O)N[C@@H](C)C(=O)N[C@@H](CCCCN)C(=O)N2)NC(=O)[C@H](CSSC[C@@H](C(N)=O)NC(=O)[C@H](CCCCN)NC(=O)CNC(=O)[C@H](CO)NC(=O)[C@H](CCCNC(=N)N)NC3=O)NC(=O)[C@H](CC(=O)O)NC(=O)[C@H](Cc2ccc(O)cc2)NC1=O [MVIIA, ω-Conotoxin MVIIA]
Hill slope: 1.296 | inhibitory effect on CaV2.2 channel (2 µM): more than 90% | reduction of ICa amplitude (SEM): 98.24 ± 0.708%
